Assay results from patent publication US4263255A, “Assay method and compounds” (Burroughs Wellcome Co., priority 1979, dated 1981).
Structures can show the parent of a compound that is named as a salt. Where a SMILES comes first, the peptide text is derived from it. Where no end group is shown, it is not given here. [ ]: non-standard residue; d: D form.

Each molecule was assayed against opiate receptor (assay: Opiate receptor affinity by method of Pasternak et al. using tritiated naloxone, absence of sodium ions). Conditions: TABLE 1 (Example 2), method indicated in Example 1: tritiated naloxone.
Format: binding
Procedure: *Method of Pasternak, G. W. et al., Molecular Pharmacology, 11, 340-351
(1975) using tritiated naloxone and in the absence of sodium ions; assays
performed at 4° C. in the presence of bacitracin (50 μg/ml) in
trishydrochloric acid buffer (50 mM, pH 7.4).
(§1) The opiate receptor IC50 (M) was ascertained by the method indicated in Example 1.
as §1

Molecule	IC50 [µM]
COC(=O)[C@H](CCSC)NC(=O)[C@H](Cc1ccccc1)NC(=O)CNC(=O)[C@@H](C)NC(=O)[C@@H](N)Cc1ccc(O)cc1 [(D), H . Tyr . D-Ala . Gly . Phe . Met . OMe]	0.005
CSCC[C@H](NC(=O)[C@H](Cc1ccccc1)NC(=O)CNC(=O)[C@@H](C)NC(=O)[C@@H](N)Cc1ccc(O)cc1)C(=O)N[C@H](C(=O)O)[C@@H](C)O [(E), H . Tyr . D-Ala . Gly . Phe . Met . Thr . OH HCl] (H-Y[dA]GFMT-OH)	0.0056
CC(C)C[C@H](NC(=O)[C@H](Cc1ccccc1)NC(=O)CNC(=O)[C@@H](C)NC(=O)[C@@H](N)Cc1ccc(O)cc1)C(=O)N[C@H](C(=O)O)[C@@H](C)O [(G), H . Tyr . D-Ala . Gly . Phe . Leu . Thr . OH HCl] (H-Y[dA]GFLT-OH)	0.008
CSCC[C@@H](NC(=O)[C@H](Cc1ccccc1)NC(=O)CNC(=O)[C@@H](C)NC(=O)[C@@H](N)Cc1ccc(O)cc1)C(=O)O [(J), H . Tyr . D-Ala . Gly . Phe . D-Met . OH HCl]	0.008
CC(C)C[C@@H](NC(=O)[C@H](Cc1ccc(Cl)cc1)NC(=O)CNC(=O)[C@@H](C)NC(=O)[C@@H](N)Cc1ccc(O)cc1)C(=O)O [(K), H . Tyr . D-Ala . Gly . Phe (4Cl) . D-Leu . OH HCl]	0.001
COC(=O)[C@@H](CC(C)C)NC(=O)[C@H](Cc1ccc(Cl)cc1)NC(=O)CNC(=O)[C@@H](C)NC(=O)[C@@H](N)Cc1ccc(O)cc1 [(L), H . Tyr . D-Ala . Gly . Phe (4Cl) . D-Leu . OMe HCl]	0.002

Same assay, conditions: TABLE 2 (Example 3), method indicated in Example 1: tritiated naloxone

Molecule	IC50 [µM]
CCNC(=O)[C@@H](CC(C)C)NC(=O)[C@H](Cc1ccc(Cl)cc1)NC(=O)CNC(=O)[C@@H](C)NC(=O)[C@@H](N)Cc1ccc(O)cc1 [(A1), H . Tyr . D-Ala . Gly . Phe(4Cl) . D-Leu . NHEt HCl]	0.08
CC(C)C[C@H](NC(=O)[C@H](Cc1ccccc1)NC(=O)[C@H](C)NC(=O)[C@@H](C)NC(=O)[C@@H](N)Cc1ccc(O)cc1)C(=O)O [(N), H . Tyr . D-Ala . Ala . Phe . Leu . OH HCl] (H-Y[dA]AFL-OH)	0.08
CCCC[C@H](NC(=O)[C@H](Cc1ccccc1)NC(=O)CNC(=O)CNC(=O)[C@@H](N)Cc1ccc(O)cc1)C(=O)O [(O), H . Tyr . Gly . Gly . Phe . Nle . OH HCl]	0.08
CC(C)C[C@@H](NC(=O)[C@H](Cc1ccccc1)NC(=O)CNC(=O)CNC(=O)[C@@H](N)Cc1ccc(O)cc1)C(=O)O [(P), H . Tyr . Gly . Gly . Phe . D-Leu . OH HCl]	0.025
C[C@@H](NC(=O)[C@@H](N)Cc1ccc(O)cc1)C(=O)NCC(=O)N[C@@H](Cc1ccccc1)C(=O)N[C@H](C(=O)O)[C@@H](C)O [(Q), H . Tyr . D-Ala . Gly . Phe . Thr . OH HCl] (H-Y[dA]GFT-OH)	0.09
CC(C)C[C@@H](NC(=O)[C@H](Cc1ccccc1)NC(=O)CNC(=O)[C@@H](C)NC(=O)[C@@H](N)Cc1ccc(O)cc1)C(=O)N[C@H](C(=O)O)[C@@H](C)O [(R), H . Tyr . D-Ala . Gly . Phe . D-Leu . Thr . OH HCl] (H-Y[dA]GF[dL]T-OH)	0.03
CSCC[C@@H](NC(=O)[C@H](Cc1ccccc1)NC(=O)CNC(=O)[C@@H](C)NC(=O)[C@@H](N)Cc1ccc(O)cc1)C(=O)N[C@H](C(=O)O)[C@@H](C)O [(S), H . Tyr . D-Ala . Gly . Phe . D-Met . Thr . OH HCl] (H-Y[dA]GF[dM]T-OH)	0.07
C[C@@H](NC(=O)[C@@H](N)Cc1ccc(O)cc1)C(=O)NCC(=O)N[C@@H](Cc1ccccc1)C(=O)O [(T), H . Tyr . D-Ala . Gly . Phe . OH HCl]	0.07
CC(C)C[C@@H](NC(=O)[C@H](Cc1ccccc1)NC(=O)CNC(=O)[C@@H](C)NC(=O)[C@@H](N)Cc1ccc(O)cc1)C(=O)Oc1ccc(Cl)cc1 [(U), H . Tyr . D-Ala . Gly . Phe . D-Leu . p-chlorophenyl ester HCl]	0.05
CN[C@@H](Cc1ccc(O)cc1)C(=O)N[C@H](C)C(=O)NCC(=O)N[C@@H](Cc1ccccc1)C(=O)N[C@H](CC(C)C)C(=O)O [(V), H . MeTyr . D-Ala . Gly . Phe . D-Leu . OH HCl]	0.03
COC(=O)[C@@H](CC(C)C)NC(=O)[C@H](Cc1ccccc1)NC(=O)CNC(=O)CNC(=O)[C@@H](N)Cc1ccc(O)cc1 [(W), H . Tyr . Gly . Gly . Phe . D-Leu . OMe HCl]	0.06
CN[C@@H](Cc1ccc(O)cc1)C(=O)N[C@H](C)C(=O)NCC(=O)N[C@@H](Cc1ccccc1)C(=O)N[C@H](CC(C)C)C(N)=O [(X), H . MeTyr . D-Ala . Gly . Phe . D-Leu . NH2 HCl]	0.02
COC(=O)[C@@H](CCSC)NC(=O)[C@H](Cc1ccccc1)NC(=O)CNC(=O)CNC(=O)[C@@H](N)Cc1ccc(O)cc1 [(Y), H . Tyr . Gly . Gly . Phe . D-Met . OMe HCl]	0.06
CSCC[C@@H](NC(=O)[C@H](Cc1ccccc1)NC(=O)CNC(=O)CNC(=O)[C@@H](N)Cc1ccc(O)cc1)C(=O)O [(Z), H . Tyr . Gly . Gly . Phe . D-Met . OH HCl]	0.01
YGGFV [(M), H . Tyr . Gly . Gly . Phe . Val . OH HCl]	0.08

Same assay, conditions: table of Example 1, tritiated naloxone, 4° C., bacitracin 50 μg/ml, pH 7.4

Molecule	IC50 [µM]
CSCC[C@H](NC(=O)[C@H](Cc1ccccc1)NC(=O)CNC(=O)[C@@H](C)NC(=O)[C@@H](N)Cc1ccc(O)cc1)C(=O)O [(B), H . Tyr . D-Ala . Gly . Phe . Met . OH HCl]	0.0038

What follows are molecules tested on opiate receptor (assay: Specific binding affinity for the opiate receptor of the radio-iodinated peaks). Conditions: first peak (monoiodinated) compared with second peak (diiodinated).
Procedure: The material comprising this peak was applied to a Sephadex 2-(diethylamino)ethyl ether column and eluted with sodium borate buffer (12.5 mM, pH 9.0, 0.1 N sodium chloride).

Molecule	specific binding affinity (for the opiate receptor)
CC(C)C[C@H](NC(=O)[C@H](Cc1ccccc1)NC(=O)CNC(=O)[C@@H](C)NC(=O)[C@@H](N)Cc1ccc(O)c([125I])c1)C(=O)O [material of the first peak, H.Tyr(3-^125 I).D-Ala.Gly.Phe.Leu.OH]	greater specific binding affinity
